Several values for one entry are separate records, joined by “and”; a condition that tells them apart may be missing. Equal values may be shown once. Where a SMILES comes first, the peptide text is derived from it. The star is where a group is joined. Cbz = O=C(OCc1ccccc1)*
Legend:
HCC827 cells = test: Cell viability (CCK-8) in HCC827 cells; type: cell-based, human; settings: for IC50: Homo sapiens, CCK-8
Protocol: (§1) The viability of cells was determined using Cell Counting Kit-8 (CCK-8; Dojindo), and IC50 was calculated using GraphPad Prism (version 6.0). For colony formation assays, cells (1 × 10^3 cells/well) seeded in 24-well plates were treated with different concentrations of compounds and replaced with fresh media with compounds every 4 days. After 7 days, the cells were washed with PBS, fixed with methanol, and stained with 0.1% crystal violet solution.

EGFR^Del19 = EGFR^Del19 (Homo sapiens, UniProt P00533+Q96SW2, DEL746-750); test: Western blot of EGFR degradation in HCC827 cells; type: cell-based; parameters: host or cells: HCC827; settings: for EGFR degradation (%): HCC827, 24 h, average of two independent experiments, NA = not active; for Effect of inhibitor pretreatment on EGFR^Del19 degradation induced by compound 14 / Rescue of EGFR^Del19 reduction induced by compound 12 or 14 (competition): HCC827; for Effect of inhibitor pretreatment on EGFR^Del19 degradation induced by compound 14: 2 μM MG132 or 5 μM MLN4924 for 2 h, then 10 nM of 14 for 8 h; for Degradation activity, in words: HCC827 (EGFR^Del19) cells; for Rescue of EGFR^Del19 reduction induced by compound 12 or 14 (competition): 2 h pretreatment, 10 nM degrader 4 h
Protocol: HCC827 and H1975 cell lines were purchased from ATCC (United States) and cultured according to the manuals. Cells were grown in monolayers in appropriate media supplemented with 10% fetal bovine serum and 1% antibiotic/antimycotic solution.
(§2) Cells at 70%–90% confluence were lysed in RIPA buffer with complete protease inhibitor cocktail (Roche Applied Science, Penzberg, Germany). Lysates were quantified, separated on SDS-PAGE gels, and transferred onto PVDF membranes, followed by the blockade with 5% milk in TBS+ 0.1% Tween-20 buffer for 1 h at room temperature. The following primary antibodies were used: anti-EGFR (1:50000, ABclonal Technology, Wuhan, China), anti-pEGFR (Tyr1068, […], Cell Signaling Technology, MA, United States), anti-AKT (1:10000, ABclonal Technology, Wuhan, China), anti-pAKT (1:10000, ABclonal Technology, Wuhan, China), and anti-β-actin (1:10000, ABclonal Technology, Wuhan, China). Protein bands were detected using Tanon High-signal ECL Western Blotting Substrate (Tanon Science and Technology Co., Ltd., Shanghai, China). The band density of the protein of interest was quantified using ImageJ.

pEGFR and pAKT = test: Western blot of downstream signaling in HCC827 cells; type: cell-based, human
Protocol: as §2

H1299 cells = test: Cell viability (CCK-8) in H1299 cells; type: cell-based; settings: up to 1 μM, 96 h
Protocol: as §1, with “Cells (5 × 10^3 for 48 h or 1 × 10^3 for 96 h) were seeded in 96-well plates, allowed to attach overnight, and then incubated with various concentrations of compounds for 48 h or 96 h. The” for “The”

EGFR^L858R/T790M protein = biological target: T1, EGFR^L858R/T790M protein (Homo sapiens, UniProt P00533, L858R/T790M); test: Immunoblots of EGFR in H1975 cells; type: cell-based; settings: H1975 cell line, up to 1 μM, 24 h
T1 construct: nor the EGFR^L858R/T790M protein in the H1975 cell line, up to 1 μM; host or cells: H1975
Protocol: as §2

HeLa cells = test: Cell viability (CCK-8) in HeLa cells; type: cell-based; settings: up to 1 μM, 96 h
Protocol: as §1, with “Cells (5 × 10^3 for 48 h or 1 × 10^3 for 96 h) were seeded in 96-well plates, allowed to attach overnight, and then incubated with various concentrations of compounds for 48 h or 96 h. The” for “The”

EGFR^WT protein = EGFR^WT protein (Homo sapiens, UniProt P00533); test: Immunoblots of EGFR in H1299, H460 and HeLa cells; type: cell-based; settings: H1299, H460 and HeLa cell lines, up to 1 μM, 24 h
Protocol: as §2

H1975 cells = test: Cell viability (CCK-8) in H1975 cells; type: cell-based; settings: up to 1 μM, 96 h
Protocol: as §1, with “Cells (5 × 10^3 for 48 h or 1 × 10^3 for 96 h) were seeded in 96-well plates, allowed to attach overnight, and then incubated with various concentrations of compounds for 48 h or 96 h. The” for “The”

O=C1CCC(N2C(=O)c3ccc(N4CCN(CCN5CCN(CCCOc6cc7ncnc(Nc8ccc(F)c(Cl)c8)c7cc6OCCCN6CCOCC6)CC5)CC4)cc3C2=O)C(=O)N1 (stereo not drawn) [Compound 12]
IC50 (HCC827 cells; HCC827, 48 h, HCC827, 48 h incubation): ~30.7 nM
IC50 (HCC827 cells; HCC827, 96 h, HCC827, 96 h incubation): ~25.6 nM
EGFR degradation (%) (EGFR^Del19; 10 nM): 60.0% ± 6.9% and 60.0 ± 6.9%
Earliest time at which EGFR^Del19 degradation observed (EGFR^Del19; HCC827 cells, 10 nM): 2 h
Dmax (EGFR^Del19; HCC827 cells, 24 h, dose-response): 85.1%
DC50 (EGFR^Del19; HCC827 cells, 24 h treatment): 1.94 nM
Levels of pEGFR and pAKT (pEGFR and pAKT): markedly reduced
Effect on viability (H1299 cells): did not affect the viability
Degradation of EGFR^L858R/T790M protein (EGFR^L858R/T790M protein): neither compound degraded
Effect on viability (HeLa cells): did not affect the viability
Degradation of EGFR^WT protein (EGFR^WT protein): neither compound degraded
Effect on viability (H1975 cells): did not affect the viability

COc1cc2ncnc(Nc3ccc(F)c(Cl)c3)c2cc1OCCCN1CCOCC1 [gefitinib, reference compound]
Effect on viability (H1299 cells): did not affect the viability
Effect on viability (HeLa cells): did not affect the viability
Effect on viability (H1975 cells): did not affect the viability

O=C1CCC(N2C(=O)c3ccc(N4CCN(CCCC(=O)N5CCN(CCCOc6cc7ncnc(Nc8ccc(F)c(Cl)c8)c7cc6OCCCN6CCOCC6)CC5)CC4)cc3C2=O)C(=O)N1 (stereo not drawn) [Compound 9]
EGFR degradation (%) (EGFR^Del19; 10 nM): 66.3 ± 22.7%

CC(C)C[C@@H](C=O)NC(=O)[C@H](CC(C)C)NC(=O)[C@H](CC(C)C)NC(=O)OCc1ccccc1 [MG132, reference compound] (Cbz-Leu-Leu-Leu-aldehyde)
Effect of inhibitor pretreatment on EGFR^Del19 degradation induced by compound 14 (EGFR^Del19): restored

NS(=O)(=O)OC[C@@H]1C[C@@H](n2ccc3c(N[C@H]4CCc5ccccc54)ncnc32)C[C@@H]1O [MLN4924, reference compound]
Effect of inhibitor pretreatment on EGFR^Del19 degradation induced by compound 14 (EGFR^Del19): restored

O=C1CCC(N2C(=O)c3ccc(OCCCCCCCCCCCOc4cc5ncnc(Nc6ccc(F)c(Cl)c6)c5cc4OCCCN4CCOCC4)cc3C2=O)C(=O)N1 (stereo not drawn) [Compound 3]
Degradation activity, in words (EGFR^Del19; 10 nM): weak degradation activities
EGFR degradation (%) (EGFR^Del19; 10 nM): 7.0 ± 9.3%

O=C1CCC(N2C(=O)c3ccc(N4CCN(CCN5CCN(CCOc6cc7ncnc(Nc8ccc(F)c(Cl)c8)c7cc6OCCCN6CCOCC6)CC5)CC4)cc3C2=O)C(=O)N1 (stereo not drawn) [Compound 11]
EGFR degradation (%) (EGFR^Del19; 10 nM): 25.1 ± 11.2%

O=C1CCC(N2C(=O)c3ccc(N4CCN(CCCCCCCCCCOc5cc6ncnc(Nc7ccc(F)c(Cl)c7)c6cc5OCCCN5CCOCC5)CC4)cc3C2=O)C(=O)N1 (stereo not drawn) [Compound 7]
EGFR degradation (%) (EGFR^Del19; 10 nM): 19.4 ± 15.1%

O=C1CCC(N2C(=O)c3ccc(OCCCCCCCCOc4cc5ncnc(Nc6ccc(F)c(Cl)c6)c5cc4OCCCN4CCOCC4)cc3C2=O)C(=O)N1 (stereo not drawn) [Compound 2]
Degradation activity, in words (EGFR^Del19; 10 nM): weak degradation activities
EGFR degradation (%) (EGFR^Del19; 10 nM): 15.3 ± 5.9%

COc1cc2c(Nc3ccc(F)c(Cl)c3)ncnc2cc1OCCCN1CCN(CCN2CCN(c3ccc4c(c3)C(=O)N(C3CCC(=O)N(C)C3=O)C4=O)CC2)CC1 (stereo not drawn) [Compound 15]
Degradation activity, in words (EGFR^Del19; 10 nM): completely lost its degradation ability

O=C1CCC(N2C(=O)c3ccc(N4CCN(CCCN5CCN(CCOc6cc7ncnc(Nc8ccc(F)c(Cl)c8)c7cc6OCCCN6CCOCC6)CC5)CC4)cc3C2=O)C(=O)N1 (stereo not drawn) [Compound 13]
EGFR degradation (%) (EGFR^Del19; 10 nM): 16.8 ± 10.5%

O=C1CCC(N2C(=O)c3ccccc3C2=O)C(=O)N1 (stereo not drawn) [thalidomide, reference compound]
Influence on viability of HCC827 cells (HCC827 cells; up to 200 nM): no influence
Rescue of EGFR^Del19 reduction induced by compound 12 or 14 (competition) (EGFR^Del19; 100 times the degrader dose (1 μM)): slight decrease in EGFR^Del19 was still observed
Rescue of EGFR^Del19 reduction induced by compound 12 or 14 (competition) (EGFR^Del19; 500 times the degrader dose (5 μM)): completely rescue

O=C1CCC(N2C(=O)c3ccc(OCCCCCOc4cc5ncnc(Nc6ccc(F)c(Cl)c6)c5cc4OCCCN4CCOCC4)cc3C2=O)C(=O)N1 (stereo not drawn) [Compound 1]
Degradation activity, in words (EGFR^Del19; 10 nM): no degradation effect
EGFR degradation (%) (EGFR^Del19; 10 nM): −6.6 ± 4.2%

O=C1CCC(N2C(=O)c3ccc(N4CCN(CCCCN5CCN(CCCOc6cc7ncnc(Nc8ccc(F)c(Cl)c8)c7cc6OCCCN6CCOCC6)CC5)CC4)cc3C2=O)C(=O)N1 (stereo not drawn) [Compound 10]
EGFR degradation (%) (EGFR^Del19; 10 nM): 32.4 ± 17.1%

O=C1CCC(N2C(=O)c3ccc(N4CCN(C(=O)CCCCCCCOc5cc6ncnc(Nc7ccc(F)c(Cl)c7)c6cc5OCCCN5CCOCC5)CC4)cc3C2=O)C(=O)N1 (stereo not drawn) [Compound 6]
EGFR degradation (%) (EGFR^Del19; 10 nM): 15.0 ± 4.0%
